Test results taken from the supplement of paper PMC10307832.

How the values were obtained:
Experiment in all cases: relative viability (nuclei count vs DMSO), 5 days (fraction); higher = more cells survive
[1] = compound: CN(C)C(=N)NC(=N)N [Metformin] + COc1cc2c(Oc3ccc(NC(=O)C4(C(=O)Nc5ccc(F)cc5)CC4)cc3F)ccnc2cc1OCCCN1CCOCC1 [Foretinib] (partner 0.25 µM)
How it was run: (§1)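 Lung cancer cell lines were pin-tool dosed in 1536-well plates on the day after seeding, with either a lone drug or a fixed anchor-drug dose plus five library-drug doses (not always all listed) in √10 steps. Nuclei were counted on 4× images after 5 days. Relative viability is the ratio of treated-well to vehicle-well nuclei counts, with each value a median of duplicate plates.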

[2] = compound: N#CC1(c2ccc(NC(=O)c3cccnc3NCc3ccncc3)cc2)CCCC1 [Apatinib] + Cc1cc(Nc2cc(N3CCN(C)CC3)nc(Sc3ccc(NC(=O)C4CC4)cc3)n2)n[nH]1 [Tozasertib] (partner 0.1 µM)
How it was run: as §1

[3] = compound: CN(C)C(=N)NC(=N)N [Metformin] + CS(=O)(=O)N1CCN(Cc2cc3nc(-c4cccc5[nH]ncc45)nc(N4CCOCC4)c3s2)CC1 [Pictilisib] (partner 1 µM)
How it was run: as §1

[4] = compound: N#CC1(c2ccc(NC(=O)c3cccnc3NCc3ccncc3)cc2)CCCC1 [Apatinib] + O=C(c1cc(Cc2n[nH]c(=O)c3ccccc23)ccc1F)N1CCN(C(=O)C2CC2)CC1 [Olaparib] (partner 8 µM)
How it was run: as §1

Cell Line	relative viability ([1]; first compound 10 µM)	relative viability ([1]; first compound 31.62 µM)	relative viability ([1]; first compound 100 µM)	relative viability ([1]; first compound 316.23 µM)	relative viability ([1]; first compound 1000 µM)	relative viability ([2]; first compound 0.08 µM)	relative viability ([2]; first compound 0.253 µM)	relative viability ([2]; first compound 0.8 µM)	relative viability ([2]; first compound 2.53 µM)	relative viability ([2]; first compound 8 µM)	relative viability ([3]; first compound 10 µM)	relative viability ([3]; first compound 31.62 µM)	relative viability ([3]; first compound 100 µM)	relative viability ([3]; first compound 316.23 µM)	relative viability ([3]; first compound 1000 µM)	relative viability ([4]; first compound 0.08 µM)	relative viability ([4]; first compound 0.253 µM)	relative viability ([4]; first compound 0.8 µM)	relative viability ([4]; first compound 2.53 µM)	relative viability ([4]; first compound 8 µM)
NCI-H1993	0.964	1.02	0.912	0.836	1.06	0.637	0.619	0.605	0.583	0.595	0.672	0.783	0.778	0.699	0.747	0.991	1.05	1.05	0.984	1.04
LCLC-103H	0.823	1.09	0.881	0.781	0.923	0.443	0.491	0.429	0.42	0.357	0.713	0.717	0.711	0.669	0.607	0.753	0.713	0.745	0.712	0.753
ChaGo-K-1	0.924	1.07	0.959	0.864	0.962	0.194	0.227	0.193	0.208	0.178	0.824	1.12	0.686	0.801	0.906	0.47	0.523	0.443	0.408	0.344
NCI-H441	–	0.879	0.799	0.788	0.77	0.672	0.569	0.538	0.533	0.428	0.527	–	0.499	0.394	0.589	0.684	0.612	0.505	0.561	0.367
ABC-1	1.48	1.14	1.05	1.02	0.287	–	0.177	0.165	0.178	0.191	–	0.76	0.787	0.643	0.265	–	0.957	0.626	0.769	0.638
NCI-H1651	1.01	0.765	1.03	0.802	1.02	0.753	0.756	0.717	0.34	0.362	0.762	0.887	0.674	0.883	0.876	0.192	0.206	0.186	0.17	0.172
NCI-H838	1.04	1.13	1.07	0.984	0.996	0.301	0.302	0.248	0.222	0.213	0.535	0.543	0.477	0.494	0.682	0.853	0.831	0.762	0.69	0.696
NCI-H1755	0.757	0.789	0.778	0.742	0.816	0.64	0.542	0.529	0.506	0.447	0.366	0.402	0.471	0.412	0.336	0.846	0.892	0.835	0.876	0.753
NCI-H1734	0.844	0.896	0.95	0.798	0.935	0.246	0.283	0.219	0.231	0.231	0.464	0.48	0.462	0.407	0.495	0.675	0.622	0.61	0.56	0.565
NCI-H2009	1.21	1.31	1.31	1.13	1.04	0.856	0.792	0.687	0.58	0.38	0.795	0.922	0.846	0.779	0.763	0.722	0.651	0.64	0.431	0.443
SW 1573	0.955	1.04	0.914	0.788	1.1	0.165	0.196	0.193	0.185	0.183	0.534	0.42	0.521	0.498	0.497	0.586	0.506	0.463	0.325	0.357
HARA	–	1.03	1.21	1	1.09	0.119	0.129	0.121	0.0894	0.0993	0.504	0.468	0.497	0.496	0.46	0.761	0.582	0.848	–	0.706
PC-3 [JPC-3]	0.808	0.945	0.996	0.93	0.946	0.904	0.871	0.78	0.814	0.681	0.773	0.728	0.771	0.751	0.709	–	1.12	0.983	1.1	1.06
NCI-H1666	1.03	1.03	1.08	1.03	1.09	0.595	0.583	0.501	0.615	0.526	0.481	0.536	0.352	0.356	0.467	0.803	0.8	0.705	0.743	0.765
NCI-H520	0.765	0.74	0.783	0.703	0.953	0.445	0.427	0.437	0.409	0.417	0.302	0.31	0.28	0.258	0.361	0.375	0.32	0.401	0.28	0.314
NCI-H2023	0.99	0.828	0.854	0.909	0.47	0.43	0.307	0.195	0.162	0.135	–	0.269	0.262	–	0.252	0.429	0.508	0.462	0.35	0.395
LXF-289	0.873	0.918	0.879	0.916	0.912	0.211	0.247	0.171	0.175	0.132	0.73	0.685	0.746	0.661	0.76	1.03	1.18	0.993	0.956	0.904
